# Results published in US11253527B2, “Method and composition for inhibiting virus infection” (priority 2019, dated 2022).
# Test system: HBV
# Experiment: HBV replication, assembly, secretion in HepG2.2.15 cells (HBsAg/HBeAg ELISA, HBV DNA real-time PCR)
# Assay type: cell-based, Hepatitis B virus
# Description: (§1) HepG2.2.15 cells were cultured with different concentrations of Antrodia camphorata fruit body extracts for 48 h, then the culture medium was collected to measure HBV HBsAg by ELISA. HepG2, containing no HBV, was used as a negative control (NC). The results are expressed as a percentage of the non-drug-treated positive control (NT) and are shown as mean±SD for three independent experiments. *, P<0.05; **, P<0.01; ***, P<0.001.
# as §1, with “HBeAg” for “HBsAg”
# as §1, with “DNA” for “HBsAg”, “real-time PCR. Plasmid p1.3HBcl, which contains a 1.3-fold HBV genome (ayw subtype (Galibert et al., 1979)), was used as standard in parallel PCR reactions, while” for “ELISA.”
# Continuous HBV proliferation can be achieved in HepG2.2.15 cells (RRID:CVCL_L855) stably transfected with the HBV genome of the adw2 subtype. HepG2.2.15 cells are used because of the unlimited supply and constant quality and were maintained in Dulbecco's modified Eagle medium (DMEM; Invitrogen) supplemented with 10% heat-inactivated fetal bovine serum (FBS; Thermo) plus 100 units of penicillin and 100 µg of streptomycin per ml (both from Invitrogen).
# The culture medium from drug-treated HepG2.2.15 cells is clarified by centrifugation at 1,000×g at 4° C. for 10 min, and then the supernatant is layered on top of a 20% sucrose cushion (20% sucrose, 20 mM HEPES, pH 7.4, 0.1% bovine serum albumin [BSA]) and centrifuged at 197,000×g for 3 h at 4° C. to pellet the HBV particles, which are then concentrated 100 fold to detect HBV DNA.
# Total DNA is extracted with a Genomic DNA isolation kit (Nexttec Biotechnologie, Germany). Total RNA is isolated from cultured cells using TRIzol® reagent (Invitrogen). Reverse transcription is performed with the RNA templates, AMV reverse transcriptase (Roche), and oligo-dT primer. The products are subjected to real-time PCR with primer sets of specific genes and SYBR Green PCR Master Mix (Bio-Rad). The primer sets used for HBV core, HBsAg, cccDNA and GAPDH are described. The results are analyzed with the iCycler iQ real-time PCR detection system (Bio-Rad). Plasmid p1.3HBcl is prepared at 10-fold dilutions (2*10^4-2*10^9 […] to generate a standard curve in parallel PCR reactions.
# To test whether Antrodia camphorata fruit body extracts had any effect on HBV genome replication, assembly, or secretion, HepG2.2.15 cells, which stably transfected with HBV genome, were used to incubate with four Antrodia camphorata fruit body extracts for 48 hours, then HBsAg, HBeAg and HBV DNA collected from medium were measured by ELISA and real-time PCR.
# [1] = 48 h, at 20 μg/ml and 50 μg/ml, percentage of non-drug-treated control
smiles,measurement,setting,value
"C=C(CC[C@@H](C)[C@H]1CC[C@H]2C3=C(C(=O)C[C@]12C)[C@@]1(C)CCC(O)[C@](C)(O)C1CC3O)C(C)C(=O)O (stereo partly shown) [A4, antcin K]","HBV replication, the assembly or release of viral particles",,significantly inhibits
same,HBV DNA repressed to,"48 h, 50 μg/ml, percentage of non-drug-treated control",55%
same,"level of HBeAg in the culture supernatant, decreased to",[1],50-60%
same,"level of HBsAg in the culture supernatant, decreased to",[1],50-60%
same,"HBsAg protein levels, dose dependence",FIG. 2A,marked dose-dependent reduction
same,"core protein levels, dose dependence",FIG. 2B,marked dose-dependent reduction
same,"HBV DNA in particles, dose dependence",FIG. 2C,marked dose-dependent reduction
